# In PubChem BioAssay AID1963832 (Molecular Pharmacology Branch, DTP, NCI, 2024):
# Tested on: 885724-159-R-J1-PDC complex spheroid viability
# Test: Anticancer human tumor 885724-159-R-J1-PDC patient-derived pancreatic adenocarcinoma cell line growth inhibition [POLQ]
# Conditions: for IC50: curve of first compound; for viability, T/C: stronger effect = lower value
# In short: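 Complex spheroid viability model combining PDC tumour cells with endothelial (HUVEC) and MSC stromal cells. Novobiocin, ART-558 or RP6685 were tested singly and in combination with standard and investigational anticancer drugs. Each was titrated in half-log steps from near clinical Cmax, or from 10 microM where Cmax was unknown.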
# [1] = second compound 0.0316 µM, first compound 0.0316 µM
# [2] = second compound 0.0316 µM, first compound 0.1 µM
# [3] = second compound 0.0316 µM, first compound 0.316 µM
# [4] = second compound 0.0316 µM, first compound 1 µM
# [5] = second compound 0.0316 µM, first compound 3.16 µM
# [6] = second compound 0.0316 µM, first compound 10 µM
# [7] = second compound 0.1 µM, first compound 0.0316 µM
# [8] = second compound 0.1 µM, first compound 0.1 µM
# [9] = second compound 0.1 µM, first compound 0.316 µM
# [10] = second compound 0.1 µM, first compound 1 µM
# [11] = second compound 0.1 µM, first compound 3.16 µM
# [12] = second compound 0.1 µM, first compound 10 µM
# [13] = second compound 0.316 µM, first compound 0.0316 µM
# [14] = second compound 0.316 µM, first compound 0.1 µM
# [15] = second compound 0.316 µM, first compound 0.316 µM
# [16] = second compound 0.316 µM, first compound 1 µM
# [17] = second compound 0.316 µM, first compound 3.16 µM
# [18] = second compound 0.316 µM, first compound 10 µM
# [19] = second compound 1 µM, first compound 0.0316 µM
# [20] = second compound 1 µM, first compound 0.1 µM
# [21] = second compound 1 µM, first compound 0.316 µM
# [22] = second compound 1 µM, first compound 1 µM
# [23] = second compound 1 µM, first compound 3.16 µM
# [24] = second compound 1 µM, first compound 10 µM
# [25] = second compound 3.16 µM, first compound 0.0316 µM
# [26] = second compound 3.16 µM, first compound 0.1 µM
# [27] = second compound 3.16 µM, first compound 0.316 µM
# [28] = second compound 3.16 µM, first compound 1 µM
# [29] = second compound 3.16 µM, first compound 3.16 µM
# [30] = second compound 3.16 µM, first compound 10 µM
# [31] = second compound 10 µM, first compound 0.0316 µM
# [32] = second compound 10 µM, first compound 0.1 µM
# [33] = second compound 10 µM, first compound 0.316 µM
# [34] = second compound 10 µM, first compound 1 µM
# [35] = second compound 10 µM, first compound 3.16 µM
# [36] = second compound 10 µM, first compound 10 µM
# 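Also: spheroids exposed to compounds for 7 days.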
compound,measurement,setting,value
CC(=O)O[C@H]1C(=O)[C@@]2(C)[C@H]([C@H](OC(=O)c3ccccc3)[C@]3(O)C[C@H](OC(=O)[C@H](O)[C@@H](NC(=O)c4ccccc4)c4ccccc4)C(C)=C1C3(C)C)[C@]1(OC(C)=O)CO[C@@H]1C[C@@H]2O + COC1C(OC(N)=O)C(O)C(Oc2ccc3c(O)c(NC(=O)c4ccc(O)c(CC=C(C)C)c4)c(=O)oc3c2C)OC1(C)C,IC50,second compound 0.0316 µM,> 3 µM
same,IC50,second compound 0.1 µM,> 3 µM
same,IC50,second compound 0.316 µM,> 3 µM
same,IC50,second compound 1 µM,> 3 µM
same,IC50,second compound 3.16 µM,> 3 µM
same,IC50,second compound 10 µM,> 3 µM
same,"viability, T/C","second compound 0.0316 µM, first compound 0.00949 µM",57.8%
same,"viability, T/C","second compound 0.0316 µM, first compound 0.03 µM",60.2%
same,"viability, T/C","second compound 0.0316 µM, first compound 0.0949 µM",55.6%
same,"viability, T/C","second compound 0.0316 µM, first compound 0.3 µM",59%
same,"viability, T/C","second compound 0.0316 µM, first compound 0.949 µM",59.9%
same,"viability, T/C","second compound 0.0316 µM, first compound 3 µM",61.6%
same,"viability, T/C","second compound 0.1 µM, first compound 0.00949 µM",66.1%
same,"viability, T/C","second compound 0.1 µM, first compound 0.03 µM",59.6%
same,"viability, T/C","second compound 0.1 µM, first compound 0.0949 µM",56.8%
same,"viability, T/C","second compound 0.1 µM, first compound 0.3 µM",66.1%
same,"viability, T/C","second compound 0.1 µM, first compound 0.949 µM",64.5%
same,"viability, T/C","second compound 0.1 µM, first compound 3 µM",56.8%
same,"viability, T/C","second compound 0.316 µM, first compound 0.00949 µM",64%
same,"viability, T/C","second compound 0.316 µM, first compound 0.03 µM",54.9%
same,"viability, T/C","second compound 0.316 µM, first compound 0.0949 µM",55.7%
same,"viability, T/C","second compound 0.316 µM, first compound 0.3 µM",56.6%
same,"viability, T/C","second compound 0.316 µM, first compound 0.949 µM",61.1%
same,"viability, T/C","second compound 0.316 µM, first compound 3 µM",68.4%
same,"viability, T/C","second compound 1 µM, first compound 0.00949 µM",65.4%
same,"viability, T/C","second compound 1 µM, first compound 0.03 µM",60%
same,"viability, T/C","second compound 1 µM, first compound 0.0949 µM",57.9%
same,"viability, T/C","second compound 1 µM, first compound 0.3 µM",62.3%
same,"viability, T/C","second compound 1 µM, first compound 0.949 µM",53.1%
same,"viability, T/C","second compound 1 µM, first compound 3 µM",56%
same,"viability, T/C","second compound 3.16 µM, first compound 0.00949 µM",64.3%
same,"viability, T/C","second compound 3.16 µM, first compound 0.03 µM",57.6%
same,"viability, T/C","second compound 3.16 µM, first compound 0.0949 µM",52.9%
same,"viability, T/C","second compound 3.16 µM, first compound 0.3 µM",56.3%
same,"viability, T/C","second compound 3.16 µM, first compound 0.949 µM",60.3%
same,"viability, T/C","second compound 3.16 µM, first compound 3 µM",66.5%
same,"viability, T/C","second compound 10 µM, first compound 0.00949 µM",60.6%
same,"viability, T/C","second compound 10 µM, first compound 0.03 µM",51.5%
same,"viability, T/C","second compound 10 µM, first compound 0.0949 µM",59.3%
same,"viability, T/C","second compound 10 µM, first compound 0.3 µM",56.5%
same,"viability, T/C","second compound 10 µM, first compound 0.949 µM",67.2%
same,"viability, T/C","second compound 10 µM, first compound 3 µM",67.4%
COc1cc(C2c3cc4c(cc3C(OC3OC5COC(C)OC5C(O)C3O)C3COC(=O)C23)OCO4)cc(OC)c1O (stereo unspecified) + COC1C(OC(N)=O)C(O)C(Oc2ccc3c(O)c(NC(=O)c4ccc(O)c(CC=C(C)C)c4)c(=O)oc3c2C)OC1(C)C,IC50,second compound 0.0316 µM,5.34 µM
same,IC50,second compound 0.1 µM,3.9 µM
same,IC50,second compound 0.316 µM,4 µM
same,IC50,second compound 1 µM,4.58 µM
same,IC50,second compound 3.16 µM,5.93 µM
same,IC50,second compound 10 µM,3.8 µM
same,"viability, T/C",[1],96.7%
same,"viability, T/C",[2],81.8%
same,"viability, T/C",[3],67.8%
same,"viability, T/C",[4],61.6%
same,"viability, T/C",[5],56.2%
same,"viability, T/C",[6],44.4%
same,"viability, T/C",[7],93.7%
same,"viability, T/C",[8],85.5%
same,"viability, T/C",[9],72%
same,"viability, T/C",[10],59.2%
same,"viability, T/C",[11],53.8%
same,"viability, T/C",[12],43.1%
same,"viability, T/C",[13],92%
same,"viability, T/C",[14],84.4%
same,"viability, T/C",[15],75.7%
same,"viability, T/C",[16],59.8%
same,"viability, T/C",[17],54%
same,"viability, T/C",[18],41.9%
same,"viability, T/C",[19],100%
same,"viability, T/C",[20],87.5%
same,"viability, T/C",[21],71.3%
same,"viability, T/C",[22],58.9%
same,"viability, T/C",[23],58.2%
same,"viability, T/C",[24],42.3%
same,"viability, T/C",[25],92.5%
same,"viability, T/C",[26],81.4%
same,"viability, T/C",[27],69.8%
same,"viability, T/C",[28],64.1%
same,"viability, T/C",[29],53.5%
same,"viability, T/C",[30],46.5%
same,"viability, T/C",[31],90.6%
same,"viability, T/C",[32],80%
same,"viability, T/C",[33],64.7%
same,"viability, T/C",[34],60.5%
same,"viability, T/C",[35],54.4%
same,"viability, T/C",[36],42.1%
O=c1[nH]cc(F)c(=O)[nH]1 + COC1C(OC(N)=O)C(O)C(Oc2ccc3c(O)c(NC(=O)c4ccc(O)c(CC=C(C)C)c4)c(=O)oc3c2C)OC1(C)C,IC50,second compound 0.0316 µM,> 10 µM
same,IC50,second compound 0.1 µM,> 10 µM
same,IC50,second compound 0.316 µM,> 10 µM
same,IC50,second compound 1 µM,> 10 µM
same,IC50,second compound 3.16 µM,> 10 µM
same,IC50,second compound 10 µM,> 10 µM
same,"viability, T/C",[1],103%
same,"viability, T/C",[2],104%
same,"viability, T/C",[3],91.6%
same,"viability, T/C",[4],95.6%
same,"viability, T/C",[5],89.4%
same,"viability, T/C",[6],80.5%
same,"viability, T/C",[7],117%
same,"viability, T/C",[8],96.3%
same,"viability, T/C",[9],101%
same,"viability, T/C",[10],97%
same,"viability, T/C",[11],88.4%
same,"viability, T/C",[12],67.5%
same,"viability, T/C",[13],99%
same,"viability, T/C",[14],91.9%
same,"viability, T/C",[15],103%
same,"viability, T/C",[16],93.8%
same,"viability, T/C",[17],80.3%
same,"viability, T/C",[18],73.6%
same,"viability, T/C",[19],119%
same,"viability, T/C",[20],108%
same,"viability, T/C",[21],100%
same,"viability, T/C",[22],92.7%
same,"viability, T/C",[23],89.6%
same,"viability, T/C",[24],71.8%
same,"viability, T/C",[25],104%
same,"viability, T/C",[26],94.1%
same,"viability, T/C",[27],92.3%
same,"viability, T/C",[28],98.8%
same,"viability, T/C",[29],83.5%
same,"viability, T/C",[30],73.8%
same,"viability, T/C",[31],113%
same,"viability, T/C",[32],86.8%
same,"viability, T/C",[33],92.9%
same,"viability, T/C",[34],96.4%
same,"viability, T/C",[35],83.2%
same,"viability, T/C",[36],70.8%
